How the values were obtained:
mice = test: Rotarod incoordination in mice; type: in vivo; details: intraperitoneal
Excerpt: In the case of rotarod incoordination, kappa agonist effects in this assay reflect kappa-opioid receptor arrestin mediated signaling. This assay is thought to be a sensitive measure of the sedative properties of kappa opioid receptor agonists. Generally, a compound which has reduced efficacy in the coupling of arrestin with the kappa opioid receptor is thought to have a lowered potential for the sedative side effects of kappa opioid receptor ligands. Rotarod assays in vivo are employed to confirm this possibility.
Rotarod experiments were conducted with mice using a dedicated rodent rotarod apparatus, with up to five animals tested concurrently (IITC Life Science, Woodland Hills, Calif., USA). Rotarod rotation rate begins at 3 rotations per minute, and ramps to 30 rotations per minute over the course of 300 s, at which time the assay is terminated and animals removed to their home cage. Animals were acclimated to the rotarod on at least two occasions prior to the day of the test. On the day of the test, baseline times for each animal to fall off the rotarod were recorded. Mice were then injected intraperitoneally with vehicle or compound, and rotarod measurements conducted, beginning 0-2 minutes after injection, and then subsequently at select time points thereafter.

[1] = biological target: T1, kappa opioid receptor (PathHunter U2OS hOPRK1 β-arrestin cell line) (Homo sapiens, UniProt P41145); test: β-arrestin coupling (PathHunter Detection Kit); type: cell-based; details: for Emax at 10 µM: U2OS, read-out: β-arrestin coupling % efficacy
T1 construct: host or cells: U2OS (PathHunter U2OS hOPRK1 β-arrestin cell line)

[2] = biological target: T2, kappa opioid receptor (PathHunter U2OS hOPRK1 membranes) (Homo sapiens, UniProt P41145); test: Tritiated U69,593 binding for KOP-R membranes
T2 construct: host or cells: U2OS (PathHunter U2OS hOPRK1 β-arrestin cell line)
T2 sequence (P41145 whole entry): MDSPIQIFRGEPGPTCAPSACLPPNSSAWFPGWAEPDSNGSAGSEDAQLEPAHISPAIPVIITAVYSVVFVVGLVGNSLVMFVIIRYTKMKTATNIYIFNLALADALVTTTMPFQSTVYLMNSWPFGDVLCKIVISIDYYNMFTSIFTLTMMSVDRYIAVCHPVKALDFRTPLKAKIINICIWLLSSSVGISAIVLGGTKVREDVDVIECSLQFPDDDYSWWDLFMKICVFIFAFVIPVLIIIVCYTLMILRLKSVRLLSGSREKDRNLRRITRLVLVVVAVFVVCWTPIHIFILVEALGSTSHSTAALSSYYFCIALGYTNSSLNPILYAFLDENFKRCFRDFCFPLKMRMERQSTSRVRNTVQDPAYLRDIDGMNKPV

T1 sequence (P41145 whole entry): as above

| SMILES | rotarod incoordination (mice; 10 mg/kg) | rotarod incoordination (mice; 30 mg/kg) | rotarod incoordination (mice; 90 mg/kg) | EC50 [1] [nM] | Emax at 10 µM [1] [%] | IC50 [2] [nM] |
| --- | --- | --- | --- | --- | --- | --- |
| O=C(Cc1ccc(Cl)c(Cl)c1)N1CCN[C@@H]2COC[C@H](N3CCCC3)[C@H]21 (racemic) [Example 5A22, 1-[8-pyrrolidin-1-yl-2,3,4,4a,5,7,8,8a-octahydropyrano(3,4-b)pyrazin-1-yl]-2-(3,4-dichlorophenyl)ethanone] | no significant incoordination | significant incoordination | significant incoordination | 1130 | 67 | 65 |
| CN1CCN(C(=O)Cc2ccc(Cl)c(Cl)c2)[C@H]2[C@H]1COC[C@@H]2N1CCCC1 (racemic) [Example 5A23, 1-[4-methyl-8-pyrrolidin-1-yl-3,4a,5,7,8,8a-hexahydro-2H- -pyrano(3,4-b)pyrazin-1-yl]-2-(3,4-dichlorophenyl)ethanone] | no significant incoordination | statistically significant incoordination | statistically significant incoordination | 5540 | 44 | 103 |

Source: patent publication US11091497B2, “Pyrano[3,4-b]pyrazine kappa opioid receptor ligands for treating addiction, pruritus, pain, and inflammation” (The Rockefeller University, priority 2017, dated 2021)
